Values of other authors, collected in paper PMC8583936, “Machine Learning Assisted Approach for Finding Novel High Activity Agonists of Human Ectopic Olfactory Receptors” (International Journal of Molecular Sciences, 2021).
Where two headings read alike, the source gives them in different places.

Tests used:
OR1A1 = molecular target: T1, OR1A1 (Homo sapiens, UniProt Q9P1Q5); conditions: cited from earlier work
T1 sequence (Q9P1Q5 1-309): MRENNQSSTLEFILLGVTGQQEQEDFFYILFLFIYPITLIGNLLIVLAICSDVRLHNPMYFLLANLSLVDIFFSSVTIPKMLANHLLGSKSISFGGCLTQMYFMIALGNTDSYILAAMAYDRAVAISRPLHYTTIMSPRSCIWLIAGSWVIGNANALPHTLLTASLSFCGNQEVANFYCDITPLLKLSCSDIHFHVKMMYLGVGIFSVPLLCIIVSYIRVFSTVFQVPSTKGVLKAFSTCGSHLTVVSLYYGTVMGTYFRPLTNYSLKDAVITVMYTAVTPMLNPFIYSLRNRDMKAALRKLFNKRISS

OR2W1 = molecular target: T2, OR2W1 (Homo sapiens, UniProt Q9Y3N9); conditions: cited from earlier work
T2 sequence (Q9Y3N9 1-320): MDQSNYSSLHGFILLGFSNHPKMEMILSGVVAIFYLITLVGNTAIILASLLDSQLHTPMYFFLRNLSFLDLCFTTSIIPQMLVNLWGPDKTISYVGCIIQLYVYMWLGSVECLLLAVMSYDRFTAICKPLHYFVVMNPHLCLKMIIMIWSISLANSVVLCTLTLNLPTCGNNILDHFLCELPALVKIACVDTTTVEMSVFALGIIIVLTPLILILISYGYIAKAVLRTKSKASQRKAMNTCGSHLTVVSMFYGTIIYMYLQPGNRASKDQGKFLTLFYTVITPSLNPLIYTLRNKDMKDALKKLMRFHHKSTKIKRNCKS

[1] = Table S1, ref Supplement references [1]-[9] as printed after each odorant name
[2] = Table S2, ref Supplement references [2]-[12] as printed after each odorant name

Row | Compound | Class (agonist / non-agonist / conflicting info.) for OR1A1 (OR1A1; [1]) | other results
1 | C=CC(C)(O)CCC=C(C)CCC=C(C)C (mixture of isomers) [Nerolidol] | Agonist | –
2 | C=C(C)C1CC=C(C)[C@@H](O)C1 (single isomer, unassigned; (-)) [(-)-Carveol] | Agonist | –
3 | C=C(C)C1CC=C(C)C(OC(C)=O)C1 (single isomer, unassigned; (-)) [(-)Carvyl acetate mix] | Non-agonist | –
4 | ClC=CCl [1,2-dichlorethylene] | Non-agonist | –
5 | CC(C)C12CCC(C)(CC1)O2 [1,4-cineole] | Non-agonist | –
6 | OCCCCCCCCCO [1,9 nonanediol] | Non-agonist | –
7 | C=CC(O)CCCCC (centres unmarked) [1-octen-3-ol] | – | Class (agonist / non-agonist / conflicting info.) for OR1A1 (OR1A1): Non-agonist
8 | CCc1nccnc1CC [2,3-diethyl pyrazine] | Conflicting info. | –
9 | Cc1nccnc1C [2,3-dimethylpyrazine] | – | Class (agonist / non-agonist / conflicting info.) for OR1A1 (OR1A1): Non-agonist
10 | CCCCCC(=O)CC(C)=O [2,4-nonanedione] | – | Class (agonist / non-agonist / antagonist / conflicting info.) for OR2W1 (OR2W1; [2]): Agonist
11 | CCCCC(=O)CC(C)=O [2,4-octanedione] | – | Class (agonist / non-agonist / antagonist / conflicting info.) for OR2W1 (OR2W1; [2]): Agonist
12 | Cc1cnc(C)cn1 [2,5 dimethyl pyrazine] | Non-agonist | –
13 | CCCCCCC(Br)C(=O)O (centres unmarked) [2-bromo octanoic acid] | Non-agonist | –
14 | CCCCC(Br)C(=O)O (centres unmarked) [2-bromohexanoic acid] | – | Class (agonist / non-agonist / conflicting info.) for OR1A1 (OR1A1): Non-agonist
15 | CCCC(Br)C(=O)O (centres unmarked) [2-bromovaleric acid] | Non-agonist | –
16 | CCc1ccccc1O [2-ethylphenol] | Agonist | –
17 | CCc1cnccn1 [2-ethylpyrazine] | – | Class (agonist / non-agonist / conflicting info.) for OR1A1 (OR1A1): Non-agonist
18 | COc1cnccn1 [2-methoxypyrazine] | Non-agonist | –
19 | Cc1cnccn1 [2-methylpyrazine] | Non-agonist | –
20 | CCCCCCCCCCCCCC(C)=O [2-pentadecanone] | Non-agonist | –
21 | CCCCCC=CCCC=O [4-decenal] | Agonist | –

Row | Compound | Class (agonist / non-agonist / conflicting info.) for OR1A1 (OR1A1; [1]) | other results
22 | COc1ccc(C)cc1 [4-methylanisole] | – | Class (agonist / non-agonist / conflicting info.) for OR1A1 (OR1A1): Non-agonist
23 | CC(=O)CC(=O)CC(C)C [6-Methyl-2,4-heptanedione] | – | Class (agonist / non-agonist / antagonist / conflicting info.) for OR2W1 (OR2W1; [2]): Agonist
24 | CCCCCCCC(=O)CCCCCCC [8-pentadecanone] | Non-agonist | –
25 | CC(C)=CCC[C@@H](C)CCO [(R)-(+)-citronellol] | – | Class (agonist / non-agonist / conflicting info.) for OR1A1 (OR1A1): Agonist
26 | CC1(C)[C@H]2CC=C(C=O)[C@@H]1C2 [(R)-(-)-myrtenal] | Non-agonist | –
27 | O=C(O)CCCCC(=O)O [Adipic acid] | Non-agonist | –
28 | COc1ccccc1 [Anisole] | Non-agonist | –
29 | COC(OC)c1ccccc1 [Benzaldehyde dimethyl acetal] | – | Class (agonist / non-agonist / conflicting info.) for OR1A1 (OR1A1): Non-agonist
30 | CC(C)(C)c1ccc(CCC=O)cc1 [Bourgeonal] | Conflicting info. | –
31 | CCC(Br)C(=O)O (centres unmarked) [Bromobutyric acid] | Non-agonist | –
32 | CCCCS [Butane thiol] | Non-agonist | –
33 | CC1C(C)(C)C2=C(C(=O)CCC2)C1(C)C (centres unmarked) [Cashmeran] | Non-agonist | –
34 | CC(=O)c1cc(C(C)(C)C)cc2c1CCC2(C)C [Celestolide] | Agonist | –
35 | CC(C)=CCCC(C)=CC#N [Citralva] | – | Class (agonist / non-agonist / conflicting info.) for OR1A1 (OR1A1): Non-agonist
36 | CC(C)=CCC[C@@H](C)CC=O [Citronellal] | – | Class (agonist / non-agonist / antagonist / conflicting info.) for OR2W1 (OR2W1): Agonist
37 | CC(C)=CCCC(C)CC(=O)O (centres unmarked) [Citronellic acid] | Non-agonist | –
38 | CC1C/C=C/CCCCCCCCC(=O)C1 (centres unmarked) [Cosmone] | Agonist | –
39 | O=C1CCCCCCCCC1 [Cyclodecanone] | Non-agonist | –
40 | C1CCCCCCCCCCCCCC1 [Cyclopentadecane] | Non-agonist | –
41 | OC1CCCCCCCCCCCCCC1 [Cyclopentadecanol] | Non-agonist | –
42 | O=C1CCCCCCCCCCCCCC1 [Cyclopentadecanone] | – | Class (agonist / non-agonist / conflicting info.) for OR1A1 (OR1A1): Non-agonist

Row | Compound | Class (agonist / non-agonist / conflicting info.) for OR1A1 (OR1A1; [1]) | other results
43 | O=C1CCCCCCCCCC1 [Cycloundecanone] | Non-agonist | –
44 | CCCCCCC/C=C/C=C/C=O [E,E-2,4-dodecadienal] | Non-agonist | –
45 | CC/C=C/CC/C=C/C=O [E,E-26-nonadienal] | Non-agonist | –
46 | CCCCC/C=C/CCC=O [E-4-decanal] | Agonist | –
47 | O=C1CCCCCCCCCCCCCCO1 [Exaltolide] | Non-agonist | –
48 | CC(C)=CCC/C(C)=C/CC/C(C)=C/CO [Farnesol] | Non-agonist | –
49 | CC1COCc2cc3c(cc21)C(C)(C)C(C)C3(C)C (centres unmarked) [Galaxolide] | Non-agonist | –
50 | O=C1CCCCCC/C=C\CCCCCCC1 [Globanone] | Non-agonist | –
51 | O=C1CCCCCCCCC/C=C/CCCO1 [Habanolide] | Non-agonist | –
52 | CCC(=O)OCC(C)(C)OC(C)C1CCCC(C)(C)C1 (centres unmarked) [Helvetolide] | Non-agonist | –
53 | c1ccc2[nH]ccc2c1 [Indole] | – | Class (agonist / non-agonist / conflicting info.) for OR1A1 (OR1A1): Non-agonist
54 | CCCCCCCC(=O)OCCC(C)C [Isoamyl octanoate] | Non-agonist | –
55 | CC(C)CS [Isobutyl mercaptan] | Non-agonist | –
56 | C/C=C/c1ccc(OC)c(OC)c1 [Methyl isoeugenol] | – | Class (agonist / non-agonist / conflicting info.) for OR1A1 (OR1A1): Agonist
57 | CCCCCCCC(=O)OC [Methyl octanoate] | Non-agonist | –
58 | CCCC(C)C=O (centres unmarked) [Methyl pentanal] | Non-agonist | –
59 | CCC(=O)OC [Methyl propionate] | – | Class (agonist / non-agonist / conflicting info.) for OR1A1 (OR1A1): Non-agonist
60 | C[C@@H]1CCCCCCCCCCCCC(=O)C1 [Muscone] | Conflicting info. | –
61 | CC(=O)c1c(C)c([N+](=O)[O-])c(C(C)(C)C)c([N+](=O)[O-])c1C [Musk ketone] | – | Class (agonist / non-agonist / conflicting info.) for OR1A1 (OR1A1): Non-agonist
62 | CC(C)=CCC/C(C)=C\CO [Nerol] | Agonist | –
63 | CC(C)=CCC/C(C)=C\COC(=O)C(C)C [Neryl isobutyrate] | – | Class (agonist / non-agonist / conflicting info.) for OR1A1 (OR1A1): Non-agonist

Row | Compound | Class (agonist / non-agonist / conflicting info.) for OR1A1 (OR1A1; [1]) | other results
64 | CC(=O)OC/C=C(/C)CCC=C(C)C [Nerylacetate] | Non-agonist | –
65 | CCCCCCCCC=O [Nonanal] | Conflicting info. | –
66 | CCCCCCCC(=O)OCCc1ccccc1 [Phenethyl octanoate] | Non-agonist | –
67 | Oc1ccccc1 [Phenol] | – | Class (agonist / non-agonist / conflicting info.) for OR1A1 (OR1A1): Non-agonist
68 | CCC(=O)c1ccccc1 [Propiophenone] | – | Class (agonist / non-agonist / conflicting info.) for OR1A1 (OR1A1): Agonist
69 | c1cnccn1 [Pyrazine] | Conflicting info. | –
70 | C1CCNC1 [Pyrrolidine] | Non-agonist | –
71 | CC(=O)CCc1ccc(O)cc1 [Raspberry ketone] | – | Class (agonist / non-agonist / conflicting info.) for OR1A1 (OR1A1): Non-agonist
72 | O=C(O)CCC(=O)O [Succinic acid] | Non-agonist | –
73 | Cc1ccc(C(C)C)c(O)c1 [Thymol] | – | Class (agonist / non-agonist / conflicting info.) for OR1A1 (OR1A1): Conflicting info.
74 | CC(=O)c1cc2c(cc1C)C(C)(C)C(C)CC2(C)C (centres unmarked) [Tonalide] | – | Class (agonist / non-agonist / conflicting info.) for OR1A1 (OR1A1): Non-agonist
75 | O=C(O)/C=C(\CC(=O)O)C(=O)O [Trans-Aconitic acid] | – | Class (agonist / non-agonist / conflicting info.) for OR1A1 (OR1A1): Non-agonist
76 | C=CC(=C)CC/C=C(\C)CCC=C(C)C [Trans-beta-farnesene] | Non-agonist | –
77 | CN(C)C [Trimethylamine] | – | Class (agonist / non-agonist / conflicting info.) for OR1A1 (OR1A1): Non-agonist
78 | CCCCCCCCCCC=O [Undecanal] | Non-agonist | –
79 | CC/C=C\CCCCCC=O [Z-7-decanal] | Agonist | –
80 | (+)-Menthone | – | Class (agonist / non-agonist / conflicting info.) for OR1A1 (OR1A1): Agonist
81 | (S)-(-)-citronellal | – | Class (agonist / non-agonist / conflicting info.) for OR1A1 (OR1A1): Agonist
82 | Ambrettolide | Non-agonist | –
83 | Farnesene | Non-agonist | –
